# Source: PMC6325233, “A Novel Actin Binding Drug with In Vivo Efficacy” (Antimicrobial Agents and Chemotherapy, 2018)
# Read-outs that look alike come from different tables or passages of the source.
# Legend:
# [1] = system: Trichophyton rubrum 11199; assay: MIC susceptibility testing (terbinafine-resistant strain); format: cell-based; conditions: CLSI M38-A2; 96 hours
# Description: Occidiofungin was purified from a liquid culture of Burkholderia contaminans MS14 as previously described ([21]). MIC susceptibility testing was performed according to the CLSI M27-A3 and M38-A2 standards for the susceptibility testing of yeasts and filamentous fungi, respectively. S. cerevisiae deletion mutants were obtained from the commercially available BY4741 deletion library (Thermo Scientific).
# C. albicans (ATCC 66027) = assay: DNA (nuclear) segregation assay, DAPI; format: cell-based; conditions: for percentage of cells in category, column 2: untreated 10.3 ± 3.8; for percentage of cells in category, column 4: untreated 1.0 ± 0.4; for percentage of cells in category, column 3: untreated 26.6 ± 5.6
# Description: (§1) The hyphal induction assay was performed as previously reported with minor modifications ([58]). Candida albicans strain ATCC 66027 was grown in yeast extract-peptone-dextrose (YPD) medium at 30°C for 48 h to reach saturation with an OD600 of 17 to 19. Cells were diluted into fresh Spider medium (1% nutrient broth, 1% mannitol, 0.2% K2HPO4) to obtain an OD600 of 0.05 (∼0.5 × 10^6 to 1 × 10^6 cells/ml) and incubated at 37°C with shaking to induce hyphal formation. Immediately prior to the 37°C incubation, occidiofungin (1 µg/ml; 0.5× MIC) or an equal volume of DMSO was added to the cultures. Aliquots were removed at 0-, 1-, 2-, 4-, and 6-h time points and fixed in 3.7% formaldehyde for later analysis of cell morphology by light microscopy. More than 200 cells were examined for each time point, and cells were scored as having either a yeast or filamentous form, with cells showing any outgrowth considered filamentous. DNA segregation assays were performed using a mid-log culture of S. cerevisiae (BY4743, diploid) and C. albicans (ATCC 66027). The cultures were diluted in fresh YPD medium to obtain OD600s of 0.095 (∼1 × 10^6 to 1.5 × 10^6 cells/ml) and 0.05 (0.5 × 10^6 to 0.8 × 10^6 cells/ml), respectively. A blank vehicle control (DMSO) or occidiofungin (1 µg/ml; 0.5× MIC) was added, and the cultures were placed at 30°C with shaking. Samples were removed at 0.5, 1, and 2 h, and the cells fixed by adding formaldehyde (3.7%). The cells were washed in phosphate-buffered saline (PBS) and permeabilized by adding an equivalent volume of PBS containing 0.2% Triton X-100 for 30 min at room temperature. The cells were washed thrice in PBS, added to concanavalin A-treated glass slides, and overlaid with Vectashield plus DAPI (4′,6-diamidino-2-phenylindole). Images were viewed using a Nikon 50i fluorescence microscope with a 100× oil immersion objective and DAPI filter. Cells were scored on the basis of bud morphology and DNA location. One-way analyses of variance (ANOVAs) with post hoc Tukey’s honestly significant difference (HSD) testing were used to determine statistically significant differences in the distributions between treated and untreated cells. In addition, FM-464 uptake assays were used to observe endocytosis. Three 1-ml aliquots of S. pombe (OD600 of 0.6 to 0.8) were treated with 1 μl DMSO, 0.5 μg/ml (0.5× MIC), or 1 μg/ml (1× MIC) of native occidiofungin for 30 min at 30°C. The cells were washed thrice with PBS and resuspended in YPD medium containing […] FM-464 (Thermo Fisher Scientific). The cells were incubated for 60 min at 30°C, followed by two washes in PBS before visualizing on an Olympus FV1000 confocal microscope with a 40×/0.9 dry objective. Lastly, actin polymerization and depolymerization assays were performed using the Actin polymerization biochem kit (catalog number BK003; Cytoskeleton, Inc.) according to the manufacturer’s instructions.
# [2] = system: S. cerevisiae (BY4743, diploid); assay: DNA (nuclear) segregation assay, DAPI; format: cell-based; conditions: for percentage of cells in category, column 2 / percentage of cells in category, column 4 / percentage of cells in category, column 3 / percentage of cells in category, column 1: 0.5X MIC, 30 °C, two experiments; for percentage of cells in category, column 2: untreated 3.9 ± 1.2; for percentage of cells in category, column 4: untreated 1.4 ± 0.5; for percentage of cells in category, column 3: untreated 13.7 ± 2.5; for percentage of cells in category, column 1: untreated 80.4 ± 2.6
# Description: as §1
# [3] = system: rabbit skeletal muscle G-actin; assay: Affinity pulldown with biotinylated alkyne-OF and streptavidin beads; format: binding; conditions: 24 μg G-actin, 8 μg alkyne-OF, azide-biotin, streptavidin beads, silver stain
# Description: Purified rabbit skeletal muscle filamentous actin (catalog number AKF99) and G-actin (catalog number AKL95) were purchased from Cytoskeleton, Inc. Actin was reconstituted in Milli-Q water to achieve a stock concentration of 0.4 mg/ml in a buffer that consisted of 5 mM Tris-HCl (pH 8.0), 0.2 mM CaCl2, 0.2 mM ATP, 2 mM MgCl2, and 5% (wt/vol) sucrose as directed by the supplier. This solution was stored at −80°C in 50-μl aliquots until use. Immediately before use, each aliquot was thawed by placing it in a 37°C water bath for 5 min and then at room temperature. For all studies, 24 μg of F- or G-actin was used with 8 μg alkyne-OF. F-actin filaments were reacted with native occidiofungin for 15 min at room temperature at molar ratios of 1:10 (24 μg actin to 8 μg native occidiofungin) and 1:5 (24 μg actin to 4 μg native occidiofungin). As per the manufacturer’s instructions, Acti-stain 670 phalloidin (Cytoskeleton, Inc.) was used as a control in an in vitro actin filament binding study. Actin filaments treated with DMSO (solvent blank negative control) were stained and observed for comparison. The actin filaments were visualized on an Olympus FV1000 confocal microscope. Pulldown assays were performed using alkyne-OF with azide-biotin (Click-iT protein reaction buffer kit; Thermo Fisher Scientific), according to the manufacturer’s instructions. The proteins captured by biotinylated alkyne-OF on streptavidin beads were eluted by boiling in 50 µl of SDS sample loading buffer. The sample was electrophoresed through a 12% SDS gel, and protein bands were visualized by silver staining (Pierce Silver stain kit; Thermo Fisher Scientific) according to the manufacturer’s protocol. F- and G-actin treated with DMSO and native occidiofungin were used as the controls.
# yeast = conditions: cited from earlier work
# Excerpt: Occidiofungin is a nonribosomally synthesized glycolipopeptide produced by the soil bacterium Burkholderia contaminans MS14 ([21]). It is a cyclic peptide with a base mass of 1,200 Da (Fig. 1) ([21]). Occidiofungin has a wide spectrum of activities against filamentous and nonfilamentous fungi and minimal toxicity in an animal system ([21], [22]).
# [4] = 0.5X MIC, 0.5 h, 30 °C, two experiments
# [5] = 0.5X MIC, 1 h, 30 °C, two experiments, * p < 0.05
# [6] = subinhibitory concentration, within 30 min
substance,measurement,setting,value
occidiofungin,"MIC, 80% inhibition",[1],1 µg/mL
same,"MIC, 100% inhibition",[1],2 µg/mL
same,"percentage of cells in category, column 1",C. albicans (ATCC 66027),58.1 ± 6.6%
same,"percentage of cells in category, column 2","C. albicans (ATCC 66027); 0.5X MIC, 0.5 h, 30 °C, two experiments, * p < 0.05",1 ± 0.7%
same,"percentage of cells in category, column 4",C. albicans (ATCC 66027); [4],5.6 ± 0.4%
same,"percentage of cells in category, column 3",C. albicans (ATCC 66027); [4],35.3 ± 6.8%
same,"percentage of cells in category, column 4",C. albicans (ATCC 66027); [5],8.1 ± 2.8%
same,"percentage of cells in category, column 2",C. albicans (ATCC 66027); [5],0.9 ± 0.1%
same,"percentage of cells in category, column 3","C. albicans (ATCC 66027); 0.5X MIC, 1 h, 30 °C, two experiments",28.1 ± 1.3%
same,"percentage of cells in category, column 1","C. albicans (ATCC 66027); 0.5X MIC, 1 h, 30 °C, two experiments, untreated 62.1 ± 8.8",62.9 ± 4.2%
same,"percentage of cells in category, column 2","C. albicans (ATCC 66027); 0.5X MIC, 2 h, 30 °C, two experiments, * p < 0.05",0.4 ± 0.6%
same,"percentage of cells in category, column 4","C. albicans (ATCC 66027); 0.5X MIC, 2 h, 30 °C, two experiments, ** p < 0.01",11.4 ± 3.8%
same,"percentage of cells in category, column 3","C. albicans (ATCC 66027); 0.5X MIC, 2 h, 30 °C, two experiments",26.3 ±12.1%
same,"percentage of cells in category, column 1","C. albicans (ATCC 66027); 0.5X MIC, 2 h, 30 °C, two experiments, untreated 62.1 ± 8.8",61.9 ± 7.7%
same,binucleated cells,C. albicans (ATCC 66027); [6],more binucleated cells
same,"percentage of cells in category (bud morphology and DNA localization), column 1",[2],66.9 ± 6.8%
same,"percentage of cells in category, column 2","[2]; 0.5 h, * p < 0.05",0.2 ± 0.3%
same,"percentage of cells in category, column 4","[2]; 0.5 h, ** p < 0.01",12.3 ± 0.6%
same,"percentage of cells in category, column 3",[2]; 0.5 h,20.5 ± 6.5%
same,"percentage of cells in category, column 2","[2]; 1 h, * p < 0.05",0.4 ± 0.1%
same,"percentage of cells in category, column 3","[2]; 1 h, * p < 0.05",25.4 ± 4.7%
same,"percentage of cells in category, column 4","[2]; 1 h, ** p < 0.01",15.1 ± 2.9%
same,"percentage of cells in category, column 1","[2]; 1 h, ** p < 0.01",59.1 ± 7.7%
same,"percentage of cells in category, column 2","[2]; 2 h, * p < 0.05",0.6 ± 0.8%
same,"percentage of cells in category, column 1","[2]; 2 h, * p < 0.05",63.5 ± 2.2%
same,"percentage of cells in category, column 4","[2]; 2 h, ** p < 0.01",13.3 ± 0.7%
same,"percentage of cells in category, column 3",[2]; 2 h,22.7 ± 2.3%
same,binucleated cells,[2]; [6],more binucleated cells
same,copurification/binding with G-actin,[3],directly bind to F- or G-actin
same,copurification/binding with G-actin,[3]; listed as native OF,actin was not detected in the control lanes
same,impact on growth rate of yeast,yeast; subinhibitory concentrations,little to no impact on the growth rate of yeast
same,induction of apoptosis,yeast; yeast cells at the MIC,rapidly induces apoptosis in yeast cells
